Reference: publication PMC10486604 (Cancers, 2023)
Like-named read-outs stand apart in the source and are kept apart here.

Columns and labels:
MA4296 = experiment: Orthotopic TNBC PDX model MA4296; assay type: in vivo, mouse; settings: orthotopic TNBC PDX models, both schedules
Description: Two orthotopic TNBC PDX mouse models were performed. Tumor cells were inoculated into the mammary fat pad of mice. Therefore, the mice were anesthetized shortly before surgery. After disinfection of the skin, mice received a small incision in the skin between the 4th and 5th dug. Each mouse was implanted with 2.5 × 10^6 (MA4296) or 5 × 10^6 (MA15191) cells. Treatment started on day 20 after inoculation, when palpable tumor sizes reached 127 mm^3 (day 33 for MA15191). […] Tumors were measured twice weekly with calipers, and their volume was calculated with the following formula: (length × width^2)/2. The body weight was also determined two times weekly. Reasons for termination were tumor size > 1.5 cm^3 or poor general condition. At the end of the study, tissue sampling for IHC and PCR analyses was performed. The statistical analysis was performed using mixed-effect analysis with Tukey’s multiple comparisons test (GraphPad Prism 8.4.2) to calculate significance in tumor growth inhibition between vehicle and treatment groups over time. The Kruskal–Wallis test was used to determine significance at study days 43 and 47. Additionally, the unpaired t-test was performed.

human NE = target: T1, human NE (Homo sapiens, UniProt P08246); experiment: Human NE biochemical cleavage assay; settings: read-out: Km (cleavage to payload 1)
T1 sequence (P08246 30-267): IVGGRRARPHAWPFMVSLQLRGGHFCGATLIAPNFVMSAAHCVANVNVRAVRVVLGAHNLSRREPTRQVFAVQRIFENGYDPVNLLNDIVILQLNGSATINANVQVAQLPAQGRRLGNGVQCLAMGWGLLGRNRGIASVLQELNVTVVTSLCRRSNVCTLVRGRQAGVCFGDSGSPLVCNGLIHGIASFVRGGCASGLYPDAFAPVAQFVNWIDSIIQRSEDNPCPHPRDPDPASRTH
Description: Then, 125 μL of pre-heated buffer (100 mM Tris pH 7.5, 150 mM NaCl, 10 mM CaCl2, and 0.05% BSA) was added to each incubation. The reaction was started by adding 0.5 or 1 nM activated mouse elastase (according to manufacturer’s protocol) or human NE to the reaction vials. A negative control without elastase was run under the same conditions. The reaction was stopped at 0, 4.5, 8, and 12 min by the addition of acidified acetonitrile/0.2% formic acid. Camptothecin was used as internal standard for the LC/MS/MS analysis.

[1] = In vivo pharmacokinetics in 786-O tumor-bearing mice; settings: female, NMRI nu/nu, mouse, iv, 4 mg/kg
Description: Plasma and tumor samples were collected and frozen at <−15 °C until sample analysis. Samples were analyzed for concentrations of respective SMDCs and the released payload 1 by LC/MS/MS. […] All pharmacokinetic parameters were calculated by non-compartmental methods.

LXFL529 = experiment: PDX model LXFL529 (NSCLC), subcutaneous; assay type: in vivo, mouse; settings: across PDX models
Description: Studies were conducted according to all applicable international, national, and local laws and followed the national guidelines for the Care and Use of Laboratory Animals of the Society of Laboratory Animal Science (GV-SOLAS). All animal experiment protocols were approved by the Regional Council Committee on the Ethics of Animal Experiments. Non-small-cell lung (LXFL529) and renal (RXF2667) PDX mouse models comprised six groups each with 10 animals. Tumor fragments (3–4 mm edge length) were transplanted, and tumor growth was monitored until a median size of about 120–150 mm^3 was achieved. […] Both experiments were terminated after a three-week recovery phase on day 63. Animals were monitored at least twice daily on working days and at least once daily on weekends (tumor size and body weight measurement). Colon (CXF2068) and triple-negative breast cancer (TNBC) (MAXF BR120) PDX mouse models were performed as described above with changes in schedule. […] The statistical significance of antitumor efficacy was analyzed by the non-parametric Kruskal–Wallis test, followed by Dunn’s method for multiple comparisons using GraphPad Prism bioanalytic software (version 9.10), with p < 0.05 as significant. Additionally, a nonpaired t-test was performed using GraphPad Prism (version 9.10).

NCI-H292 = experiment: In vitro proliferation (MTT) assay in presence and absence of NE, NCI-H292; assay type: cell-based; settings: Homo sapiens, 72 h
Description: (§1) The in vitro cytotoxicity was evaluated in cancer cell lines NCI-H292 and LoVo after a 72-h continuous exposure to the presence or absence of 20 nM NE using MTT assays (ATCC, Manassas, VA, USA). IC50 values were determined as the concentration of compound required for 50% inhibition of cell viability.

[2] = payload 1 dosed directly 1 mg/kg IV, 786-O tumor-bearing mice, cited from earlier work
LoVo = experiment: In vitro proliferation (MTT) assay in presence and absence of NE, LoVo; assay type: cell-based; settings: Homo sapiens, 72 h
Description: as §1

**Q.** Which Tolerability (MA4296) does the source give for `CCCNC(=O)Nc1cccc(S(=O)(=O)Nc2cccc([C@@H](CC(=O)O)NC(=O)Nc3ccc(NC(=O)NCCOCCOCCOCCC(=O)N[C@@H](CC(=O)O)C(=O)N4CCC[C@H]4C(=O)N[C@H](C(=O)O[C@]4(CC)C(=O)OCc5c4cc4n(c5=O)Cc5c-4nc4ccccc4c5CC)C(C)C)cc3)c2)c1` [VIP236] here?
**A.** well tolerated

**Q.** What about the Km (human NE; enzyme concentration 0.5 nmol) of the same compound?
**A.** 9.4 µM

**Q.** What about the Km (human NE; enzyme concentration 1.0 nmol) of the same compound?
**A.** 9.6 µM

**Q.** What about the half-life [1] of the same compound?
**A.** 0.807 h

**Q.** And the “Tolerability (weight loss)” value (LXFL529)?
**A.** well tolerated

**Q.** With `CCCNC(=O)Nc1cccc(S(=O)(=O)Nc2cccc([C@H](CC(=O)O)NC(=O)Nc3ccc(NC(=O)NCCOCCOCCOCCC(=O)N[C@@H](CC(=O)O)C(=O)N4CCC[C@H]4C(=O)N[C@H](C(=O)O[C@]4(CC)C(=O)OCc5c4cc4n(c5=O)Cc5c-4nc4ccccc4c5CC)C(C)C)cc3)c2)c1` [8e2] as the compound, how does the half-life [1] read?
**A.** 1.3 h

**Q.** Which IC50 (NCI-H292; absence of hNE, read-out: NCI H292 IC50) does the source give for `CCc1c2c(nc3ccccc13)-c1cc3c(c(=O)n1C2)COC(=O)[C@]3(O)CC` [compound 1, 7-ethyl camptothecin] here?
**A.** 1.54 nM

**Q.** What about the IC50 (NCI-H292; presence of 20 nM hNE, read-out: NCI H292 + hNE IC50) of the same compound?
**A.** 1.35 nM

**Q.** And the “AUCplasma of payload 1 (VIP126)” value [2]?
**A.** 301 ng·h/mL

**Q.** And the “AUCtumor of payload 1 (VIP126)” value [2]?
**A.** 185 ng·h/mL

**Q.** What about the “AUCtumor/AUCplasma of payload 1 (VIP126)” value [2] of the same compound?
**A.** 0.61

**Q.** And the “AUCtumor/AUCplasma of payload 1 (VIP126)” value ([2]; listed as Payload 1 (VIP126))?
**A.** 0.616

**Q.** And the IC50 (LoVo; absence of hNE, read-out: LoVo IC50)?
**A.** 1.9 nM

**Q.** What about the IC50 (LoVo; presence of 20 nM hNE, read-out: LoVo + hNE IC50) of the same compound?
**A.** 1.85 nM
